Here are results for 11 compounds from patent US12258328B2, “6-membered heteroaryl-containing aminopyridine compounds as EGFR inhibitors” (YUHAN CORPORATION, priority 2021, dated 2025).

One test has as its target EGFR del19/T790M/C797S (Homo sapiens, UniProt P00533, C797S/DEL746-750/T790M). Put plainly: Biochemical EGFR kinase assay (Lance Ultra TR-FRET), triple mutant del19/T790M/C797S. The gist of the method: (§1)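 Kinase activity is measured by TR-FRET phosphopeptide detection. Compounds span 0.003 μM to 10 μM; the 1 h reaction at room temperature is quenched with EDTA, then labelled antibody (2 nM) is incubated 60 min before reading.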
(In general: TR-FRET usually uses a lanthanide donor and a delayed reading to cut background.)

Another test concerns the target EGFR L858R/T790M/C797S (Homo sapiens, UniProt P00533, C797S/L858R/T790M). Put plainly: Biochemical EGFR kinase assay (Lance Ultra TR-FRET), triple mutant L858R/T790M/C797S. In a few lines:
as §1

A further test addresses EGFR del19/C797S (Homo sapiens, UniProt P00533, C797S/DEL746-750). Nature of the test: Biochemical EGFR kinase assay (Lance Ultra TR-FRET), double mutant del19/C797S. The gist of the method: as §1
A further test has as its target EGFR L858R/C797S (Homo sapiens, UniProt P00533, C797S/L858R). Nature of the test: Biochemical EGFR kinase assay (Lance Ultra TR-FRET), double mutant L858R/C797S. In a few lines: as §1
Another test deals with EGFR wildtype (Homo sapiens, UniProt P00533). Put plainly: Biochemical EGFR kinase assay (Lance Ultra TR-FRET), wildtype. The gist of the method: as §1
Chain of EGFR wildtype (P00533 25-1210): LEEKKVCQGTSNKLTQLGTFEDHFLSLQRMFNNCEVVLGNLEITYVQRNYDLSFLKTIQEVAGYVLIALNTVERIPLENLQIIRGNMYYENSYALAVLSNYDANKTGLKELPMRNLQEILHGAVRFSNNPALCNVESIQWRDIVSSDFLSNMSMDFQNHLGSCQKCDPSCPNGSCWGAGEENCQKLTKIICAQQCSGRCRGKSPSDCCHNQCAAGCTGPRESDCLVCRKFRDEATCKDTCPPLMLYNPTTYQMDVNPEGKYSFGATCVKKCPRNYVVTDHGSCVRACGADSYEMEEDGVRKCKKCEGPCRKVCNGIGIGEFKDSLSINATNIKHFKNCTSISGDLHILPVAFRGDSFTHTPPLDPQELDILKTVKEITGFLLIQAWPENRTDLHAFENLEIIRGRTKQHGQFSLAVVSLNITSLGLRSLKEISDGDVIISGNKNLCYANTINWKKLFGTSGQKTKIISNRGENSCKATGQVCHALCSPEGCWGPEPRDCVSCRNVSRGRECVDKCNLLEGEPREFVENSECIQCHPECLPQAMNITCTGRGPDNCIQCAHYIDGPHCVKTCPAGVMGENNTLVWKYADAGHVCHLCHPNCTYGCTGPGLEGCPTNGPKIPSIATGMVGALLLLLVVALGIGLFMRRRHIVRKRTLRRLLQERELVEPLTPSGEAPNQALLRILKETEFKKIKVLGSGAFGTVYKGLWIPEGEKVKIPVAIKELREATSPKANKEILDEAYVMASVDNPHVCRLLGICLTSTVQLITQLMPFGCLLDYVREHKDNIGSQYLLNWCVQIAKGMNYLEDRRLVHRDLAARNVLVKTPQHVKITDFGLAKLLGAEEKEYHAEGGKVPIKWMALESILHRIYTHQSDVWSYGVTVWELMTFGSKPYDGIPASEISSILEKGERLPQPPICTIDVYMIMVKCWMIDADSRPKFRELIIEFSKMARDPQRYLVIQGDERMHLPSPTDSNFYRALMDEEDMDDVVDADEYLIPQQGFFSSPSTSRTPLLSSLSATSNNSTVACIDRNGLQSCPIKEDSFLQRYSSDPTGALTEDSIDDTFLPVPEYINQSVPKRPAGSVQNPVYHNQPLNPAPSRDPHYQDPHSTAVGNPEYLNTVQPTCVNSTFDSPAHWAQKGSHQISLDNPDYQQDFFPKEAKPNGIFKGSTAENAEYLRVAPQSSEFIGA
The mark [1] stands for this setting: ATP at Km, read-out: IC50 del19/T790M/C797S, Km ATP.
The mark [2] stands for this setting: ATP at Km, read-out: IC50 L858R/T790M/C797S, Km ATP.
[3] abbreviates: ATP at Km, read-out: IC50 del19/C797S, Km ATP.
The mark [4] stands for this setting: ATP at Km, read-out: IC50 L858R/C797S, Km ATP.
Setting [5] is: ATP at Km, read-out: IC50 WT, Km ATP.
Setting [6] is: IC50 del19/T790M/C797S, 100 μM ATP.
Setting [7] is: IC50 L858R/T790M/C797S, 100 μM ATP.

Where two headings read alike, the source gives them in different places.

Chain of EGFR L858R/T790M/C797S (P00533 25-1210 T790M/C797S/L858R): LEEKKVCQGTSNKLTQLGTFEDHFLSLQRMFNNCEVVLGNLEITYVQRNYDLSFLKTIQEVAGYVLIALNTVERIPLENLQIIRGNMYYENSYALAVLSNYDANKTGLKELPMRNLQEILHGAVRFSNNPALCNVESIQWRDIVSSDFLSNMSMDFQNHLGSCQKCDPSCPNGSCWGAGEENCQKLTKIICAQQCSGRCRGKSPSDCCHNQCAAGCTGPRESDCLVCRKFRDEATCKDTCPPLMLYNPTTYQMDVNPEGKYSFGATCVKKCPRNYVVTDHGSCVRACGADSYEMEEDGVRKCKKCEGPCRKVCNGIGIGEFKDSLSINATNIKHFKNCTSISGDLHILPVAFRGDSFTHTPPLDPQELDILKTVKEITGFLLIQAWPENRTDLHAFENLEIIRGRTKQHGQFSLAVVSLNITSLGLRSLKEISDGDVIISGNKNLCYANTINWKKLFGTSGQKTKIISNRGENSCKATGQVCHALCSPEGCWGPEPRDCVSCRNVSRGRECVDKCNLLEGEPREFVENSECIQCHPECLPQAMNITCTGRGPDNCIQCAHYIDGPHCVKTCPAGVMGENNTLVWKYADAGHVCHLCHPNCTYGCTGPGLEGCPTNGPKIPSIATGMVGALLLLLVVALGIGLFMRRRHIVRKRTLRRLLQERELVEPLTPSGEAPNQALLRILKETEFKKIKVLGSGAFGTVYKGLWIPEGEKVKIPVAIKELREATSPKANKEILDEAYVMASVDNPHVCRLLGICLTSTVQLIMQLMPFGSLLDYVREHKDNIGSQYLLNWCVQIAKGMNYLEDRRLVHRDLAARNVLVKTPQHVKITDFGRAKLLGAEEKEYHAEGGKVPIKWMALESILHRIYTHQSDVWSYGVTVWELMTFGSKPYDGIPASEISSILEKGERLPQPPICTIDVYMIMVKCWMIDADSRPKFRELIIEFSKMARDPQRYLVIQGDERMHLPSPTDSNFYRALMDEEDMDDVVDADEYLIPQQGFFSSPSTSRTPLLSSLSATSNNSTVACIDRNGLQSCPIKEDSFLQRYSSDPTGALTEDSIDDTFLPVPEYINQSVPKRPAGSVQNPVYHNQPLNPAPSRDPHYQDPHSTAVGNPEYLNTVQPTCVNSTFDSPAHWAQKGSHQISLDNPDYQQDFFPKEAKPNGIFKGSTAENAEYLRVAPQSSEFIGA
Chain of EGFR L858R/C797S (P00533 25-1210 C797S/L858R): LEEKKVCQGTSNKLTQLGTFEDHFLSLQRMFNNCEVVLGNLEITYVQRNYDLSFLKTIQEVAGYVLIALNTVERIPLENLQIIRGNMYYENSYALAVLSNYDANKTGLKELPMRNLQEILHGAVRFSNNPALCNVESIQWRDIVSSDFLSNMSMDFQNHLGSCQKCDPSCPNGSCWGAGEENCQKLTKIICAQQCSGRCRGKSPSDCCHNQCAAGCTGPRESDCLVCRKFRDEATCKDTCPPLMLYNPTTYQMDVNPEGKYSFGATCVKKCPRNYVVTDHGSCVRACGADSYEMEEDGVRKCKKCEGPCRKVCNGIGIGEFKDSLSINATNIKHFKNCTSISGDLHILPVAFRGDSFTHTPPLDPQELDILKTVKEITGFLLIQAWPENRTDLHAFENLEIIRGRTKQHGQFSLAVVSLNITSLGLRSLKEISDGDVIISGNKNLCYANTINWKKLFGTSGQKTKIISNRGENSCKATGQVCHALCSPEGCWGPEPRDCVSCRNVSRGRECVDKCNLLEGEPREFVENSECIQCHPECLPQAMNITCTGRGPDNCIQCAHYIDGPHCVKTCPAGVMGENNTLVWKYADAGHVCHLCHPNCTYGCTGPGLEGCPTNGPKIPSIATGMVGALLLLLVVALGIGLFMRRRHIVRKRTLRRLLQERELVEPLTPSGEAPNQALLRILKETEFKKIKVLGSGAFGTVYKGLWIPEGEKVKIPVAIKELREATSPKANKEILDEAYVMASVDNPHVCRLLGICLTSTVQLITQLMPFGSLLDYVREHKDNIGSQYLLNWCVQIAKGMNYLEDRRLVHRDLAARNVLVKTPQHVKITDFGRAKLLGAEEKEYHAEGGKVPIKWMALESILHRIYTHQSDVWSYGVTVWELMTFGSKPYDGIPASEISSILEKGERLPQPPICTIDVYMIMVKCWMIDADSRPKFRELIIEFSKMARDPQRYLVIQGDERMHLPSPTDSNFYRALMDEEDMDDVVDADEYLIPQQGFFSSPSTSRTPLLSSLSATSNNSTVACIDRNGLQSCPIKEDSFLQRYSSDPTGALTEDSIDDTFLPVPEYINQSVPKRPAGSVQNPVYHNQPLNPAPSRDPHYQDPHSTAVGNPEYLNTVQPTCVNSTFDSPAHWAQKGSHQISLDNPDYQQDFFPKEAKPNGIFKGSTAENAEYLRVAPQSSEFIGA
Chain of EGFR del19/T790M/C797S (P00533 with tags, fused parts or gaps DEL746-750/T790M/C797S): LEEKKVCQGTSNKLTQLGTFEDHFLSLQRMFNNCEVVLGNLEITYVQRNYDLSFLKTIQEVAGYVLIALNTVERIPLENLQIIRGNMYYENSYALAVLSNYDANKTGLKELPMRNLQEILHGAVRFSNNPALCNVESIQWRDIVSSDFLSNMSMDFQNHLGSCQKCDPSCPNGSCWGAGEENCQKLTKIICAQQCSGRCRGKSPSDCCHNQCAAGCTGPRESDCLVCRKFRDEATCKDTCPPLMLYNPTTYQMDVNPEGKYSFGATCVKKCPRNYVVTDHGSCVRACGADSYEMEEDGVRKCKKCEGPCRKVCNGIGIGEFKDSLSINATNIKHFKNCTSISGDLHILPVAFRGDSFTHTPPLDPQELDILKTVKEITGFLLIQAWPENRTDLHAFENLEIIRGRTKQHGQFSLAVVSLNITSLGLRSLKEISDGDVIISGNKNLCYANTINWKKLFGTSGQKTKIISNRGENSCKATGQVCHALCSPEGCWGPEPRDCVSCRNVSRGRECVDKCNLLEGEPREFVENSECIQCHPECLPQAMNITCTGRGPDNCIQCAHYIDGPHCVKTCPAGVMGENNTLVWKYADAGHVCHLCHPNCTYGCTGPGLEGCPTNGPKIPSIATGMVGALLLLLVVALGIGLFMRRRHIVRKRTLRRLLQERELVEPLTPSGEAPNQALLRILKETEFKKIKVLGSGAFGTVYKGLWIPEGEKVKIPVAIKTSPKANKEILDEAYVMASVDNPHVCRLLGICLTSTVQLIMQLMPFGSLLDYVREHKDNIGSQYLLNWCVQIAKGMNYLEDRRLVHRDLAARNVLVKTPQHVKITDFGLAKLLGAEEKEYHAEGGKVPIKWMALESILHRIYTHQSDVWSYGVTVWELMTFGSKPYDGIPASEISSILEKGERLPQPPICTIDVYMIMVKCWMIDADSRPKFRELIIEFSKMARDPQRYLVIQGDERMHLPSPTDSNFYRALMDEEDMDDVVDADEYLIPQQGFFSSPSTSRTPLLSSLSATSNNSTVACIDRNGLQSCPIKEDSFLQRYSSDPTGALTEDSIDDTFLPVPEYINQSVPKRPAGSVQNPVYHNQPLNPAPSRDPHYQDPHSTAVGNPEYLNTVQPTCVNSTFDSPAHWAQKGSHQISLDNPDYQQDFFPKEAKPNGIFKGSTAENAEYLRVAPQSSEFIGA

As to `CC(C)(O)c1ccc(-c2cnc(Nc3ccnc(-c4cnn(S(=O)(=O)C5CC5)c4)n3)cc2N[C@H]2CC[C@@H](F)CC2)nc1` [Example 173, 2-(6′-((2-(1-(Cyclopropylsulfonyl)-1H-pyrazol-4-yl)pyrimidin-4-yl)amino)-4′-(((1s,4s)-4-fluorocyclohexyl)amino)-[2,3′-bipyridin]-5-yl)propan-2-ol], the IC50 on EGFR del19/T790M/C797S (setting [1]) came to 1.8 nM; on EGFR L858R/T790M/C797S (setting [2]), 0.9 nM; on EGFR del19/C797S (setting [3]), 7.9 nM; at EGFR L858R/C797S (setting [4]), 1.6 nM; at EGFR wildtype (setting [5]), 23.2 nM.
In the case of `CC(C)(O)c1ccc(-c2cnc(Nc3ccnc(-c4cnn(S(=O)(=O)C5CC5)c4)n3)cc2NC2CCC(F)CC2)nc1` (stereo not shown) [Example 174, 2-(6′-((2-(1-(Cyclopropylsulfonyl)-1H-pyrazol-4-yl)pyrimidin-4-yl)amino)-4′-((4-fluorocyclohexyl)amino)-[2,3′-bipyridin]-5-yl)propan-2-ol], the IC50 at EGFR del19/T790M/C797S (setting [1]) was 2.5 nM; on EGFR L858R/T790M/C797S (setting [2]) it was 1.1 nM; on EGFR del19/C797S (setting [3]), 7.7 nM; on EGFR L858R/C797S (setting [4]), 1.8 nM; at EGFR wildtype (setting [5]), 23.4 nM.
Regarding `CC(C)(O)c1ccc(-c2cnc(Nc3ccnc(-c4cnn(S(=O)(=O)C5CC5)c4)n3)cc2NC2CCC(F)(F)CC2)nc1` [Example 175, 2-(6′-((2-(1-(Cyclopropylsulfonyl)-1H-pyrazol-4-yl)pyrimidin-4-yl)amino)-4′-((4,4-difluorocyclohexyl)amino)-[2,3′-bipyridin]-5-yl)propan-2-ol], the IC50 on EGFR del19/T790M/C797S (setting [1]) is 2.4 nM; on EGFR L858R/T790M/C797S (setting [2]), 1.1 nM; on EGFR del19/C797S (setting [3]), 20.4 nM; at EGFR L858R/C797S (setting [4]) it was 3.9 nM; on EGFR wildtype (setting [5]), 90.3 nM.
The matching figures for `CC(C)(O)c1ccc(-c2cnc(Nc3ccnc(-c4cnn(S(=O)(=O)C5CC5)c4)n3)cc2NC2CCCN(CCF)C2)nc1` (stereo not shown) [Example 177, 2-(6′-((2-(1-(Cyclopropylsulfonyl)-1H-pyrazol-4-yl)pyrimidin-4-yl)amino)-4′-((1-(2-fluoroethyl)piperidin-3-yl)amino)-[2,3′-bipyridin]-5-yl)propan-2-ol]: 0.9 nM, 1.9 nM, 3.7 nM, 9 nM and 40.5 nM.
With `CC(C)(O)c1ccc(-c2cnc(Nc3ccnc(-c4cnn(S(=O)(=O)C5CC5)c4)n3)cc2NC2CCN(CC(F)F)CC2)nc1` [Example 178, 2-(6′-((2-(1-(Cyclopropylsulfonyl)-1H-pyrazol-4-yl)pyrimidin-4-yl)amino)-4′-((1-(2,2-difluoroethyl)piperidin-4-yl)amino)-[2,3′-bipyridin]-5-yl)propan-2-ol], the IC50 on EGFR del19/T790M/C797S (setting [1]) was 0.7 nM; at EGFR L858R/T790M/C797S (setting [2]), 1 nM; at EGFR del19/C797S (setting [3]) it was 2.6 nM; at EGFR L858R/C797S (setting [4]) it was 4.7 nM; at EGFR wildtype (setting [5]) it was 96.5 nM.
Regarding `Cc1ccc(-c2cnc(Nc3ccnc(-c4cnn(S(=O)(=O)C5CC5)c4)n3)cc2N[C@H]2CC[C@@](C)(O)CC2)nc1F` [Example 179, (1s,4s)-4-((6′-((2-(1-(Cyclopropylsulfonyl)-1H-pyrazol-4-yl)pyrimidin-4-yl)amino)-6-fluoro-5-methyl-[2,3′-bipyridin]-4′-yl)amino)-1-methylcyclohexan-1-ol], the IC50 is 0.9 nM on EGFR del19/T790M/C797S (setting [1]); 0.4 nM at EGFR L858R/T790M/C797S (setting [2]); 0.6 nM on EGFR del19/C797S (setting [3]); 2.8 nM at EGFR del19/C797S (IC50 del19/C797S, 100 μM ATP); 3.6 nM against EGFR L858R/C797S (IC50 L858R/C797S, 100 μM ATP); 4.1 nM at EGFR wildtype (setting [5]). Besides, the IC50 against EGFR wildtype (IC50 WT, 100 μM ATP) was above 10000 nM.
Regarding `Cc1ccc(-c2cnc(Nc3ccnc(-c4cnn(S(=O)(=O)C5CC5)c4)n3)cc2N[C@H]2CC[C@@H](C(C)(C)O)CC2)nc1F` [Example 180, 2-((1s,4s)-4-((6′-((2-(1-(Cyclopropylsulfonyl)-1H-pyrazol-4-yl)pyrimidin-4-yl)amino)-6-fluoro-5-methyl-[2,3′-bipyridin]-4′-yl)amino)cyclohexyl)propan-2-ol], the IC50 at EGFR del19/T790M/C797S (setting [1]) came out at 5.8 nM; on EGFR del19/T790M/C797S (setting [6]), 8.5 nM; at EGFR L858R/T790M/C797S (setting [2]) it was 2.5 nM; on EGFR L858R/T790M/C797S (setting [7]) it was 9.1 nM; on EGFR del19/C797S (setting [3]), 6 nM; against EGFR del19/C797S (IC50 del19/C797S, 100 μM ATP) it was 30.7 nM. Also, the IC50 at EGFR L858R/C797S (setting [4]) is 12 nM; against EGFR L858R/C797S (IC50 L858R/C797S, 100 μM ATP) it was 67.7 nM; at EGFR wildtype (setting [5]), 47.5 nM; on EGFR wildtype (IC50 WT, 100 μM ATP), above 10000 nM.
With `C[C@]1(O)CC[C@@H](Nc2cc(Nc3ccnc(-c4cnn(S(=O)(=O)C5CC5)c4)n3)ncc2-c2ccc(C(F)(F)F)c(F)n2)CC1` [Example 181, (1s,4s)-4-((6′-((2-(1-(Cyclopropylsulfonyl)-1H-pyrazol-4-yl)pyrimidin-4-yl)amino)-6-fluoro-5-(trifluoromethyl)-[2,3′-bipyridin]-4′-yl)amino)-1-methylcyclohexan-1-ol], the IC50 on EGFR del19/T790M/C797S (setting [1]) came out at 5.5 nM; on EGFR del19/T790M/C797S (setting [6]), 10 nM; at EGFR L858R/T790M/C797S (setting [2]) it was 2.2 nM; on EGFR L858R/T790M/C797S (setting [7]) it was 20.3 nM; on EGFR del19/C797S (setting [3]), 16.2 nM; on EGFR del19/C797S (IC50 del19/C797S, 100 μM ATP), 41.5 nM. The IC50 on EGFR L858R/C797S (setting [4]) was 19.7 nM; on EGFR L858R/C797S (IC50 L858R/C797S, 100 μM ATP), 157 nM; at EGFR wildtype (setting [5]), 129 nM; against EGFR wildtype (IC50 WT, 100 μM ATP), above 10000 nM.
With `CC(C)(O)[C@H]1CC[C@@H](Nc2cc(Nc3ccnc(-c4cnn(S(=O)(=O)C5CC5)c4)n3)ncc2-c2ccc(S(=O)(=O)N3CCOCC3)cn2)CC1` [Example 184, 2-((1s,4s)-4-((6′-((2-(1-(Cyclopropylsulfonyl)-1H-pyrazol-4-yl)pyrimidin-4-yl)amino)-5-(morpholinosulfonyl)-[2,3′-bipyridin]-4′-yl)amino)cyclohexyl)propan-2-ol], the IC50 is 9.1 nM on EGFR del19/T790M/C797S (setting [1]); 2.8 nM on EGFR del19/T790M/C797S (setting [6]); 0.8 nM on EGFR L858R/T790M/C797S (setting [7]); 2.7 nM at EGFR del19/C797S (setting [3]); 12.2 nM against EGFR del19/C797S (IC50 del19/C797S, 100 μM ATP); 2.2 nM at EGFR L858R/C797S (setting [4]). The IC50 was 12.9 nM at EGFR L858R/C797S (IC50 L858R/C797S, 100 μM ATP); 15.2 nM on EGFR wildtype (setting [5]); above 10000 nM against EGFR wildtype (IC50 WT, 100 μM ATP).
Consider `C[C@]1(O)CC[C@@H](Nc2cc(Nc3ccnc(-c4cnn(S(=O)(=O)C5CC5)c4)n3)ncc2-c2cnc(F)cn2)CC1` [Example 185, (1s,4s)-4-((2-((2-(1-(Cyclopropylsulfonyl)-1H-pyrazol-4-yl)pyrimidin-4-yl)amino)-5-(5-fluoropyrazin-2-yl)pyridin-4-yl)amino)-1-methylcyclohexan-1-ol], for which the IC50 on EGFR del19/T790M/C797S (setting [1]) came to 2 nM; on EGFR del19/T790M/C797S (setting [6]), 8.3 nM; at EGFR L858R/T790M/C797S (setting [7]), 1.9 nM; on EGFR del19/C797S (setting [3]) it was 6.7 nM; on EGFR del19/C797S (IC50 del19/C797S, 100 μM ATP), 20.3 nM; on EGFR L858R/C797S (setting [4]), 3 nM. Also, the IC50 was 32.1 nM at EGFR L858R/C797S (IC50 L858R/C797S, 100 μM ATP); 111 nM at EGFR wildtype (setting [5]); above 10000 nM on EGFR wildtype (IC50 WT, 100 μM ATP).
Turning to `CC(C)(O)[C@H]1CC[C@@H](Nc2cc(Nc3ccnc(-c4cnn(S(=O)(=O)C5CC5)c4)n3)ncc2-c2cnc(F)cn2)CC1` [Example 186, 2-((1s,4s)-4-((2-((2-(1-(Cyclopropylsulfonyl)-1H-pyrazol-4-yl)pyrimidin-4-yl)amino)-5-(5-fluoropyrazin-2-yl)pyridin-4-yl)amino)cyclohexyl)propan-2-ol], the IC50 at EGFR del19/T790M/C797S (setting [1]) amounted to 3.8 nM; against EGFR del19/T790M/C797S (setting [6]), 29 nM; at EGFR L858R/T790M/C797S (setting [7]), 4.8 nM; at EGFR del19/C797S (setting [3]), 11.5 nM; against EGFR del19/C797S (IC50 del19/C797S, 100 μM ATP), 56.8 nM; on EGFR L858R/C797S (setting [4]), 5.8 nM. Besides, the IC50 on EGFR L858R/C797S (IC50 L858R/C797S, 100 μM ATP) was 165 nM; at EGFR wildtype (setting [5]), 744 nM; against EGFR wildtype (IC50 WT, 100 μM ATP), above 10000 nM.
